Reference: PubChem BioAssay (NCI)
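Each compound was tested at five concentrations against cells in 96-well plates for 48 hours. At the GI50, growth is halved. TGI denotes the concentration required for complete inhibition of growth.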

Columns and labels:
Assay in all cases: NCI tumour cell line growth inhibition, 48 h
NCI-H226 lung = test system: NCI-H226 lung
A549 NSCLC = test system: A549 NSCLC
MDA-MB-435 = test system: MDA-MB-435
NCI-H460 lung = test system: NCI-H460 lung
UACC-257 melanoma = test system: UACC-257 melanoma
TK-10 renal = test system: TK-10 renal
UO-31 renal = test system: UO-31 renal
OVCAR-5 ovarian = test system: OVCAR-5 ovarian
SK-MEL-2 melanoma = test system: SK-MEL-2 melanoma
CCRF-CEM leukemia = test system: CCRF-CEM leukemia

Structure (SMILES) | GI50 (NCI-H226 lung) | TGI (NCI-H226 lung) | GI50 (A549 NSCLC) | TGI (A549 NSCLC) | GI50 (MDA-MB-435) | TGI (MDA-MB-435) | GI50 (NCI-H460 lung) | TGI (NCI-H460 lung) | GI50 (UACC-257 melanoma) | TGI (UACC-257 melanoma) | GI50 (TK-10 renal) | TGI (TK-10 renal) | GI50 (UO-31 renal) | TGI (UO-31 renal) | GI50 (OVCAR-5 ovarian) | TGI (OVCAR-5 ovarian) | GI50 (SK-MEL-2 melanoma) | TGI (SK-MEL-2 melanoma) | GI50 (CCRF-CEM leukemia) | TGI (CCRF-CEM leukemia)
Clc1ccc(/C=C/c2ccc3ccccc3n2)cc1 | 25 µM | > 100 µM | 1.75 µM | > 100 µM | 0.226 µM | 0.531 µM | 1.2 µM | 15.7 µM | 1.83 µM | > 100 µM | 5.24 µM | > 100 µM | 4.68 µM | > 100 µM | 4.36 µM | > 100 µM | 0.311 µM | 1.24 µM | 0.508 µM | > 100 µM
COc1ccc2c(c1)C(=O)/C(=C/c1cccc(OCC(=O)Nc3nc(C)c(C)s3)c1)O2 | 1.85 µM | 5.27 µM | 0.19 µM | 2.41 µM | 2.95 µM | 13.3 µM | 2.71 µM | 8.49 µM | 12.8 µM | 26.3 µM | 1.03 µM | 2.8 µM | 0.0222 µM | 0.0378 µM | 0.205 µM | 1.14 µM | 0.0199 µM | 0.047 µM | 0.0168 µM | 0.0337 µM
COc1cc([C@@H]2c3cc4c(cc3[C@H](OC(C)=O)[C@H]3COC(=O)[C@@H]23)OCO4)cc(OC)c1OC | 3.82 µM |  | 0.463 µM | > 100 µM | 0.0787 µM | 0.469 µM | 0.322 µM | 3.3 µM |  | > 100 µM |  | > 100 µM | 0.493 µM | > 100 µM | 0.523 µM | > 100 µM | 0.342 µM |  | 0.338 µM | > 100 µM
CSc1ncnc2c1ncn2CC(=O)C1CCC2C3CCC4=CC(=O)CCC4(C)C3CCC12C (stereo not given) |  | 29.8 µM |  | > 64.7 µM |  | 10 µM |  | 18.9 µM |  | 6.09 µM |  | 30.1 µM |  | 2.52 µM |  | > 100 µM |  | 11.6 µM |  | 2.16 µM
O=C1/C(=C\c2ccco2)Oc2ccccc21 |  | > 100 µM |  | > 100 µM |  | > 100 µM |  | > 100 µM |  | > 100 µM |  | > 100 µM |  | > 100 µM |  | > 100 µM |  | > 100 µM |  | > 100 µM
c1ccc(-c2nc3n(c2-c2ccc4c(c2)OCO4)CCC3)nc1 | 4.54 µM | 17 µM | 5.88 µM | > 25 µM | 8.8 µM | > 25 µM | 4.51 µM | 13.3 µM | 7.45 µM | 21.9 µM | 1.41 µM | > 23.6 µM | 0.611 µM | 8.58 µM | 5.03 µM | > 25 µM | 11.7 µM | > 25 µM | 7.63 µM | > 25 µM
O=C(NN1C(=O)CSC1c1cccc(Cl)c1)C(O)c1ccccc1 (stereo not given) | 81 µM | > 100 µM | 35.9 µM | > 100 µM | > 100 µM | > 100 µM | 42.8 µM | > 100 µM | > 100 µM | > 100 µM | > 100 µM | > 100 µM | 75.5 µM | > 100 µM | > 100 µM | > 100 µM | > 100 µM | > 100 µM | > 100 µM | > 100 µM
O=C(c1ccc2ccccc2c1)c1nc2cc(F)ccc2[n+]([O-])c1C(F)(F)F | 22.2 µM | 46.5 µM | 20.6 µM | 53.7 µM | 15.2 µM | 28.6 µM | 18.8 µM | 38 µM | 17.4 µM | 35.3 µM | 28.5 µM | 92.2 µM | 9.42 µM | 48.8 µM | 23.1 µM | 48.9 µM | 18.7 µM | 35.8 µM | 22.5 µM | 66.3 µM
CCCN(CCC)c1ccc(C=O)c(Cl)c1 | 0.152 µM | 0.322 µM | 7.66 µM | > 100 µM | 25.2 µM | > 87.8 µM | 2.19 µM | 39.3 µM | 0.273 µM | 0.979 µM | 0.262 µM | 1.17 µM | 19.7 µM | > 83.8 µM | 0.432 µM | 2.33 µM | 15 µM | 44.3 µM | 35.5 µM | > 100 µM
CCOC(=O)c1ccc(NC(=O)NC2=NCCS2)cc1 | 3.14 µM | > 100 µM | 0.584 µM | > 100 µM | 3.42 µM | 19.4 µM | 3.2 µM | > 100 µM | > 100 µM | > 100 µM | > 100 µM | > 100 µM | 5.13 µM | > 100 µM | 99.1 µM | > 100 µM | 24.6 µM | 97.9 µM | 0.433 µM | > 100 µM
COc1cccc(CNc2ncnc3c2ncn3C2OC(CO)C(O)C2O)c1O (stereo not given) |  | > 100 µM | 1.05 µM | > 100 µM | 0.111 µM | 2.78 µM | 0.931 µM | > 100 µM | 1.91 µM | > 100 µM | 0.058 µM | 1.38 µM | 0.123 µM | > 28.6 µM | 0.417 µM | > 100 µM | 0.656 µM | > 100 µM |  | > 100 µM
Nc1nc(N)c2cc(Sc3ccc4ccccc4c3)ccc2n1 |  | 18.1 µM |  | 12 µM |  | 2.54 µM |  | 2.26 µM |  | 4.61 µM |  | 6.33 µM |  | 7.69 µM |  | 10.4 µM | 1.68 µM | 3.42 µM |  | 4.83 µM
COc1ccc2c(c1)CN([C@@H](C)[C@H]1CC[C@H]3[C@@H]4CC[C@H]5C[C@@H](O)CC[C@]5(C)[C@H]4CC[C@]13C)CO2 |  | 24.3 µM |  | 4.51 µM |  | 3.48 µM |  | 2.47 µM |  | 6.31 µM |  | 8.32 µM |  | 3.39 µM |  | 13.5 µM |  | 3.83 µM |  | 6.19 µM
O=C(Nc1cccc2[nH]c(C(F)(F)F)nc12)c1cc(Cl)ccc1Cl | 3.39 µM | 25.5 µM | 3.45 µM | > 100 µM | 2.96 µM | 12.4 µM | 3.09 µM | > 100 µM | 3.34 µM | 12.3 µM | 4.17 µM | 36.2 µM | 2.78 µM | 11.3 µM | 4.03 µM | > 100 µM | 2.79 µM | 6.66 µM | 3.16 µM | 46.8 µM
N=c1ccc2nc3ccc(N)cc3sc-2c1 | 12.4 µM | 28.2 µM | 3.43 µM | > 100 µM | 2.37 µM | 5.21 µM | 5.23 µM | > 100 µM | 2.75 µM | 11.1 µM | 11.7 µM | 35.5 µM | 26 µM | > 100 µM | 7.62 µM | 24.3 µM | 6.08 µM | 22.5 µM | 3.55 µM | 35.3 µM
COc1cc(OCc2cccc(-c3ccccc3)c2C)cc(OC)c1CN1CCCCC1C(=O)NCCOCCOCCN (stereo not given) | 14.7 µM | 30.9 µM | 3.04 µM | 10.7 µM | 1.79 µM | 3.32 µM | 1.83 µM | 3.73 µM | 1.83 µM | 3.68 µM | 2.48 µM | 7.42 µM | 10.6 µM | 22.9 µM | 3.73 µM | 14.9 µM | 1.96 µM | 4.03 µM | 2.68 µM | 8.9 µM
Cc1ccc(S(=O)(=O)c2nc(-c3ccccc3)oc2S(C)(=O)=O)cc1 | 3.31 µM | 15 µM | 14.2 µM | 27.3 µM | 2.11 µM | 4.58 µM | 13.3 µM | 27.8 µM | 3.01 µM | 12.2 µM | 1.7 µM | 3.1 µM | 1.48 µM | 2.81 µM | 2.12 µM | 5.28 µM | 3.4 µM | 14.1 µM | 2.83 µM | 8.16 µM
CCCCCCCCCc1ccc(OCCOCCOCCOCCOCCOCCOCCOCCOCCO)cc1 | 0.561 µM | 1.77 µM | 0.414 µM | 3.69 µM | 0.832 µM | 3.05 µM | 0.301 µM | 1.65 µM | 0.0567 µM | 0.812 µM | 0.745 µM | 1.93 µM | 0.733 µM | 4.82 µM | 1.1 µM | 3.54 µM | 0.876 µM | 1.96 µM | 0.305 µM | 2.04 µM
Cc1cc(CCl)c(C)cc1CCl | 2.89 µM | 16 µM | 1.66 µM | 5.09 µM | 1.84 µM | 4.69 µM | 0.12 µM | 1.43 µM | 2.15 µM | 5.29 µM | 1.97 µM | 5.05 µM | 1.53 µM | 3.71 µM | 2.94 µM | 8.62 µM | 3.27 µM | 13.3 µM | 0.351 µM | 5.61 µM
COc1cc(F)ccc1-c1cc(Nc2cc(CS(C)(=N)=O)ccn2)ncc1F (stereo not given) | 0.0375 µM | > 100 µM | 0.105 µM | > 100 µM | 0.107 µM | > 100 µM | 0.0593 µM | > 100 µM | 0.261 µM | > 100 µM | 0.151 µM | > 100 µM | 0.0337 µM | > 100 µM | 0.0488 µM | > 100 µM | 0.135 µM | 0.437 µM | 0.0344 µM | > 100 µM
